Assay results from patent US11596639B2, “Substituted indole Mcl-1 inhibitors” (Vanderbilt University, priority 2016, dated 2023).
Read-outs that look alike come from different tables or passages of the source.

Experiments:
Mcl-1 = Mcl-1 (Homo sapiens (Human), UniProt Q07820); assay: Fluorescence polarization anisotropy (FPA) competition assay, FITC-Bak or FITC-Bim BH3 peptide; format: binding; details: read-out: Ki for Inhibition of Mcl-1 by FPA assay
[1] = tested on: H929 human cancer cell lines; assay: Cellular viability / proliferation (Cell TiterGlo, 72 h); format: cell-based
Method in brief: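 Compounds were added as 2-fold serial dilutions from 50 μM (final DMSO <1%) to H929 cells seeded 1,000 per well in 10% FBS medium one day earlier.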

[2] = H929 cells, 72 h, Cell TiterGlo, 10% FBS, read-out: GI50 on cellular proliferation of H929 human cancer cell lines
[3] = Homo sapiens, NCI-H929, 72 h, read-out: GI50 on cellular proliferation of H929 human cancer cell lines, H929 cells, 72 h, Cell TiterGlo, 10% FBS
[4] = read-out: GI50 on cellular proliferation of H929 human cancer cell lines, H929 cells, 72 h, Cell TiterGlo, 10% FBS

Mcl-1, sequence (Q07820 172-327): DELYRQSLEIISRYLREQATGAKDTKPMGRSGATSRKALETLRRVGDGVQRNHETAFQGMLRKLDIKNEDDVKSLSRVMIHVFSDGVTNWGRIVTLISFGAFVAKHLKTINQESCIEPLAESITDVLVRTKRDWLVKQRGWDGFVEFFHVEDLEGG

Row | Compound | Ki (Mcl-1) [µM] | GI50 [1, 2] [µM] | GI50 [1, 3] [µM] | GI50 [1, 4] [µM]
1 | (R)-4-(7-chloro-10-(3-(4-chloro-3,5-dimethylphenoxy)propyl)-4-methyl-1-oxo-6-(1,3,5-trimethyl-1H-pyrazol-4-yl)-3,4-dihydropyrazino[1,2-a]indol-2(1H)-yl)-2-methyl-2H-indazole-1-carboxylic acid [Example 97] | < 0.001 | 3.4 |  | 
2 | Cc1cc(OCCCc2c3n(c4c(-c5c(C)nn(C)c5C)c(Cl)ccc24)CCCN(c2cc(C(=O)O)cc4c2ccn4S(C)(=O)=O)C3=O)cc(C)c1Cl [Example 32, 4-(8-Chloro-11-(3-(4-chloro-3,5-dimethylphenoxy)propyl)-1-oxo-7-(1,3,5-trimethyl-1H-pyrazol-4-yl)-4,5-dihydro-1H-[1,4]diazepino[1,2-a]indol-2(3H)-yl)-1-(methylsulfonyl)-1H-indole-6-carboxylic acid] | < 0.001 |  | 7.6 | 
3 | Cc1cc(OCCCc2c3n(c4c(-c5c(C)nn(C)c5C)c(Cl)ccc24)[C@H](C)CN(c2cccc4cc(C(=O)O)n(CC5COC5)c24)C3=O)cc(C)c1Cl [Example 383, (R)-7-(7-Chloro-10-(3-(4-chloro-3,5-dimethylphenoxy)propyl)-4-methyl-1-oxo-6-(1,3,5-trimethyl-1H-pyrazol-4-yl)-3,4-dihydropyrazino[1,2-a]indol-2(1H)-yl)-1-(oxetan-3-ylmethyl)-1H-indole-2-carboxylic acid] | 0.0026 |  | 1.5 | 
4 | COCCN1CCN(Cc2nc(C)c(-c3c(Cl)ccc4c(CCCOc5cc(C)c(Cl)c(C)c5)c5n(c34)[C@H](C)CN(c3cn(C)c4ccc(C(=O)O)cc34)C5=O)c(C)n2)CC1 [Example 439, (R)-3-(7-Chloro-10-(3-(4-chloro-3,5-dimethylphenoxy)propyl)-6-(2-((4-(2-methoxyethyl)piperazin-1-yl)methyl)-4,6-dimethylpyrimidin-5-yl)-4-methyl-1-oxo-34-dihydropyrazino[1,2-a]indol-2(1H)-yl)-1-methyl-1H-indole-5-carboxylic acid] | 0.0019 | < 0.2 |  | 
5 | Cc1cc(OCCCc2c3n(c4c(-c5c(C)nn(C)c5C)c(Cl)ccc24)CCCN(c2ccc4c(C(=O)O)cn(C)c4c2)C3=O)cc(C)c1Cl [Example 81, 6-(8-Chloro-11-(3-(4-chloro-3,5-dimethylphenoxy)propyl)-1-oxo-7-(1,3,5-trimethyl-1H-pyrazol-4-yl)-4,5-dihydro-1H-[1,4]diazepino[1,2-a]indol-2(3H)-yl)-1-methyl-1H-indole-3-carboxylic acid] | 0.0024 |  | 2.9 | 
6 | Cc1cc(OCCCc2c3n(c4c(-c5c(C)nn(C)c5C)c(Cl)ccc24)[C@H](C)CN(c2coc4ccccc24)C3=O)cc(C)c1Cl (single isomer, unassigned) [Example 246] | 0.0086 |  |  | 5.3
7 | Cc1cc(OCCCc2c3n(c4c(-c5c(C)nn(C)c5C)c(Cl)ccc24)[C@H](C)CN(c2cccc4c(C(=O)O)cn(C)c24)C3=O)cc(C)c1Cl [Example 215, (R)-7-(7-chloro-10-(3-(4-chloro-3,5-dimethylphenoxy)propyl)-4-methyl-1-oxo-6-(1,3,5-trimethyl-1H-pyrazol-4-yl)-3,4-dihydropyrazino[1,2-a]indol-2(1H)-yl)-1-methyl-1H-indole-3-carboxylic acid] | < 0.001 |  |  | 0.43
8 | Cc1cc(OCCCc2c3n(c4c(-c5c(C)nn(C)c5C)c(Cl)ccc24)[C@H](C)CN(c2cc(OCc4ccccc4)cc4cc(C(=O)O)n(C)c24)C3=O)cc(C)c1Cl [Example 333, (M, R)-5-(Benzyloxy)-7-(7-chlor-10-(3-(4-chloro-3,5-dimethylphenoxy)propyl)-4 methyl-1-oxo-6-(1,3,5-trimethyl-1H-pyrazol-4-yl)-3,4-dihydropyrazino[1,2-a]indol-2(1H)-yl)-1-methyl-1H-indole-2-carboxylic acid] | 0.0013 | 1.1 |  | 
9 | COCCn1cc(C(=O)O)c2c(N3C[C@@H](C)n4c(c(CCCOc5cc(C)c(Cl)c(C)c5)c5ccc(Cl)c(-c6c(C)nn(C)c6C)c54)C3=O)cccc21 [Example 181, 4-[(4R)-7-chloro-10-[3-(4-chloro-3,5-dimethyl-phenoxy)propyl]-4-methyl-1-oxo-6-(1,3,5-trimethylpyrazol-4-yl)-3,4-dihydropyrazino[1,2-a]indol-2-yl]-1-(2-methoxyethyl)indole-3-carboxylic acid] | 0.0014 |  | 2 | 
10 | Cc1cc(OCCCc2c3n(c4c(-c5c(C)nn(C)c5C)c(Cl)ccc24)[C@H](C)CN(c2cn(C)c4ccc(C(=O)NCc5ccccn5)cc24)C3=O)cc(C)c1Cl [Example 281, 3-[(4R)-7-chloro-10-[3-(4-chloro-3,5-dimethyl-phenoxy)propyl]-4-methyl-1-oxo-6-(1,3,5-trimethylpyrazol-4-yl)-3,4-dihydropyrazino[1,2-a]indol-2-yl]-1-methyl-N-(2-pyridylmethyl)indole-5-carboxamide] | 0.0022 |  | 1.4 | 
11 | Cc1cc(OCCCc2c3n(c4c(-c5c(C)nn(C)c5C)c(Cl)ccc24)CCCN(c2cc(C(=O)O)c4ccn(CCN5CCOCC5)c4c2)C3=O)cc(C)c1Cl [Example 31, 6-(8-chloro-11-(3-(4-chloro-3,5-dimethylphenoxy)propyl)-1-oxo-7-(1,3,5-trimethyl-1H-pyrazol-4-yl)-4,5-dihydro-1H-[1,4]diazepino[1,2-a]indol-2(3H)-yl)-1-(2-morpholinoethyl)-1H-indole-4-carboxylic acid] | < 0.001 |  | 1.8 | 
12 | Cc1cc(OCCCc2c3n(c4c(-c5c(C)nn(C)c5C)c(Cl)ccc24)[C@H](C)CN(c2cn(C)c4ccc(-c5cn6c(n5)CCC6)cc24)C3=O)cc(C)c1Cl [Example 419, (R)-7-Chloro-10-(3-(4-chloro-3,5-dimethylphenoxy)propyl)-2-(5-(6,7-dihydro-5H-pyrrolo[1,2-a]imidazol-2-yl)-1-methyl-1H-indol-3-yl)-4-methyl-6-(1,3,5-trimethyl-1H-pyrazol-4-yl)-3,4-dihydropyrazino[1,2-a]indol-1(2H)-one] | 0.0023 | 1.1 |  | 
13 | Cc1cc(OCCCc2c3n(c4c(-c5c(C)nn(C)c5C)c(Cl)ccc24)[C@H](C)CN(c2ccc(C(=O)O)c4ccn(C)c24)C3=O)cc(C)c1Cl [Example 52, (R)-7-(7-chloro-10-(3-(4-chloro-3,5-dimethylphenoxy)propyl)-4-methyl-1-oxo-6-(1,3,5-trimethyl-1H-pyrazol-4-yl)-3,4-dihydropyrazino[1,2-a]indol-2(1H)-yl)-1-methyl-1H-indole-4-carboxylic acid] | < 0.001 |  | 0.47 | 
14 | Cc1cc(OCCCc2c3n(c4c(-c5c(C)nn(C)c5C)c(Cl)ccc24)[C@H](C)CN(c2cccc4cc(C(=O)O)ccc24)C3=O)cc(C)c1Cl [Example 186, (R)-5-(7-Chloro-10-(3-(4-chloro-3,5-dimethylphenoxy)propyl)-4-methyl-1-oxo-6-(1,3,5-trimethyl-1H-pyrazol-4-yl)-3,4-dihydropyrazino[1,2-a]indol-2(1H)-yl)-2-naphthoic acid] | < 0.001 |  | < 0.2 | 
15 | Cc1cc(OCCCc2c3n(c4c(-c5c(C)ncnc5C)c(Cl)ccc24)[C@H](C)CN(c2cn(C)c4ccc(C(N)=O)cc24)C3=O)cc(C)c1Cl [Example 269, 3-[(4R)-7-chloro-10-[3-(4-chloro-3,5-dimethyl-phenoxy)propyl]-6-(4,6-dimethylpyrimidin-5-yl)-4-methyl-1-oxo-3,4-dihydropyrazino[1,2-a]indol-2-yl]-1-methyl-indole-5-carboxamide] | 0.0074 |  | 0.76 | 
16 | Cc1cc(OCCCc2c3n(c4c(-c5c(C)ncnc5C)c(Cl)ccc24)[C@H](C)CN(c2cccc4c2cc(C(=O)O)n4C)C3=O)cc(C)c1Cl [Example 210, 4-[(4R)-7-chloro-10-[3-(4-chloro-3,5-dimethyl-phenoxy)propyl]-6-(4,6-dimethylpyrimidin-5-yl)-4-methyl-1-oxo-3,4-dihydropyrazino[1,2-a]indol-2-yl]-1-methyl-indole-2-carboxylic acid] | 0.0013 |  | 1.5 | 
17 | Cc1cc(OCCCc2c3n(c4c(-c5c(C)nn(C)c5C)c(Cl)ccc24)CCCN(c2cc(C(=O)O)c4cnn(CCN(C)C)c4c2)C3=O)cc(C)c1Cl [Example 30, 6-[8-Chloro-11-[3-(4-chloro-3,5-dimethyl-phenoxy)propyl]-1-oxo-7-(1,3,5-trimethylpyrazol-4-yl)-4,5-dihydro-3H-[1,4]diazepino[1,2-a]indol-2-yl]-1-[2-(dimethylamino)ethyl]indazole-4-carboxylic acid] | 0.0012 |  | 5.4 | 
18 | Cc1cc(OCCCc2c3n(c4c(-c5c(C)nn(C)c5C)c(Cl)ccc24)[C@H](C)CN(c2cn(C)c4ccc(C(=O)N(C)C)cc24)C3=O)cc(C)c1Cl [Example 289, 3-[(4R)-7-chloro-10-[3-(4-chloro-3,5-dimethyl-phenoxy)propyl]-4-methyl-1-oxo-6-(1,3,5-trimethylpyrazol-4-yl)-3,4-dihydropyrazino[1,2-a]indol-2-yl]-N,N,1-trimethyl-indole-5-carboxamide] | 0.015 |  | 5.2 | 
19 | COCCOc1ccc(N2C[C@@H](C)n3c(c(CCCOc4cc(C)c(Cl)c(C)c4)c4ccc(Cl)c(-c5c(C)nn(C)c5C)c43)C2=O)c2c1cc(C(=O)O)n2C [Example 325, (M, R)-7-(7-Chloro-10-(3-(4-chloro-3,5-dimethylphenoxy)propyl)-4-methyl-1-oxo-6-(1,3,5-trimethyl-1H-pyrazol-4-yl)-3,4-dihydropyrazino[1,2-a]indol-2(1H)-yl)-4-(2-methoxyethoxy)-1-methyl-1H-indole-2-carboxylic acid] | < 0.001 | 0.29 |  | 
